The results in this text go back to article PMC6576746, “Rational discovery of dual-indication multi-target PDE/Kinase inhibitor for precision anti-cancer therapy using structural systems pharmacology” (PLoS Computational Biology, 2019).

Holding throughout (experiment): biochemical
Holding throughout (parameters): DiscoverX KinomeScan competition binding assay across human kinases; per cent of control at 10 and 100 uM

The target of one test is CAMKK2 (Homo sapiens, UniProt Q96RR4). The note with it: competition binding, % of control; read-out: Percent Control (100 uM Levosimendan). The essentials: (§1)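 KinomeScan competition binding was run across a human kinase panel at 10 μM and 100 μM levosimendan. Results are %control = (test − positive control)/(negative control − positive control) × 100.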
The next test concerns the target CSF1R-autoinhibited (Homo sapiens, UniProt P07333). The following applies: competition binding, % of control; read-out: Percent Control (100 uM Levosimendan). In a few lines: as §1
In another test the target is CSK (Homo sapiens, UniProt P41240). The note with it: competition binding, % of control; read-out: Percent Control (100 uM Levosimendan). In a few lines:
as §1

A further test has as its target T1, DCAMKL2 (Homo sapiens, UniProt Q8N568).
T1 construct: gene DCLK2
The note with it: competition binding, % of control; read-out: Percent Control (100 uM Levosimendan). The essentials:
as §1

The target of another test is EGFR(S752-I759del) (Homo sapiens, UniProt P00533, DEL752-759). The following applies: competition binding, % of control; read-out: Percent Control (100 uM Levosimendan). The essentials: as §1
In the next test the target is EPHB2 (Homo sapiens, UniProt P29323). The note with it: competition binding, % of control; read-out: Percent Control (100 uM Levosimendan). The essentials: as §1
The target of a further test is LIMK1 (Homo sapiens, UniProt P53667). The note with it: competition binding, % of control; read-out: Percent Control (100 uM Levosimendan). In a few lines: as §1
A further test has as its target NEK4 (Homo sapiens, UniProt P51957). The following applies: competition binding, % of control; read-out: Percent Control (100 uM Levosimendan). In a few lines: as §1
The target in a further test is NEK6 (Homo sapiens, UniProt Q9HC98). The note with it: competition binding, % of control; read-out: Percent Control (100 uM Levosimendan). The essentials: as §1
In another test the target is T2, PCTK1 (Homo sapiens, UniProt Q00536).
T2 construct: gene CDK16
The following applies: competition binding, % of control; read-out: Percent Control (100 uM Levosimendan). In a few lines: as §1

A further test has as its target PDPK1 (Homo sapiens, UniProt O15530). The following applies: competition binding, % of control; read-out: Percent Control (100 uM Levosimendan). In a few lines:
as §1

A further test deals with T3, PFTK1 (Homo sapiens, UniProt O94921).
T3 construct: gene CDK14
The note with it: competition binding, % of control; read-out: Percent Control (100 uM Levosimendan). The essentials:
as §1

The next test has as its target PIKFYVE (Homo sapiens, UniProt Q9Y2I7). The note with it: competition binding, % of control; read-out: Percent Control (100 uM Levosimendan). The essentials:
as §1

The target in the next test is PLK1 (Homo sapiens, UniProt P53350). The note with it: competition binding, % of control; read-out: Percent Control (100 uM Levosimendan). The essentials:
as §1

Another test addresses RIOK2 (Homo sapiens, UniProt Q9BVS4). The following applies: competition binding, % of control. In a few lines:
as §1

The target of a further test is SRMS (Homo sapiens, UniProt Q9H3Y6). The note with it: competition binding, % of control; read-out: Percent Control (100 uM Levosimendan). In a few lines:
as §1

For the next test, the target named is ULK2 (Homo sapiens, UniProt Q8IYT8). The following applies: competition binding, % of control; read-out: Percent Control (100 uM Levosimendan). The essentials:
as §1

Another test has as its target WNK4 (Homo sapiens, UniProt Q96J92). The note with it: competition binding, % of control; read-out: Percent Control (100 uM Levosimendan). In a few lines: as §1
For a further test, the target named is T4, YANK3 (Homo sapiens, UniProt Q86UX6).
T4 construct: gene STK32C
The following applies: competition binding, % of control; read-out: Percent Control (100 uM Levosimendan). In a few lines:
as §1

Chain of RIOK2 (Q9BVS4 whole entry): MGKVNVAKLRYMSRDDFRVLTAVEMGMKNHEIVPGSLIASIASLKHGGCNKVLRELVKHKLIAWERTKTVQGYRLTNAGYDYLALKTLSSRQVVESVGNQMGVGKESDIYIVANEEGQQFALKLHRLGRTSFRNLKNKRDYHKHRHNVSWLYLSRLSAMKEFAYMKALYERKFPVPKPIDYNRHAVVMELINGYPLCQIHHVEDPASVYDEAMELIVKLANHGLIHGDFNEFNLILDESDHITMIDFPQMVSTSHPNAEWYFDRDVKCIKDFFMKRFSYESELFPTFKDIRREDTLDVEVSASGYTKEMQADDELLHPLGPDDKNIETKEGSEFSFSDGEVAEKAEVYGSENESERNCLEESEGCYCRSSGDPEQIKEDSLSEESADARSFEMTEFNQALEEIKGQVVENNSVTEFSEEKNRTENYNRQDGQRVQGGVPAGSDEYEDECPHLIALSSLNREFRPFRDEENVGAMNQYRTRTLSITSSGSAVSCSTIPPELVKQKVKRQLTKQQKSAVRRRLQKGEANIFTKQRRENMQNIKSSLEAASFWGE
T1 sequence (Q8N568 whole entry): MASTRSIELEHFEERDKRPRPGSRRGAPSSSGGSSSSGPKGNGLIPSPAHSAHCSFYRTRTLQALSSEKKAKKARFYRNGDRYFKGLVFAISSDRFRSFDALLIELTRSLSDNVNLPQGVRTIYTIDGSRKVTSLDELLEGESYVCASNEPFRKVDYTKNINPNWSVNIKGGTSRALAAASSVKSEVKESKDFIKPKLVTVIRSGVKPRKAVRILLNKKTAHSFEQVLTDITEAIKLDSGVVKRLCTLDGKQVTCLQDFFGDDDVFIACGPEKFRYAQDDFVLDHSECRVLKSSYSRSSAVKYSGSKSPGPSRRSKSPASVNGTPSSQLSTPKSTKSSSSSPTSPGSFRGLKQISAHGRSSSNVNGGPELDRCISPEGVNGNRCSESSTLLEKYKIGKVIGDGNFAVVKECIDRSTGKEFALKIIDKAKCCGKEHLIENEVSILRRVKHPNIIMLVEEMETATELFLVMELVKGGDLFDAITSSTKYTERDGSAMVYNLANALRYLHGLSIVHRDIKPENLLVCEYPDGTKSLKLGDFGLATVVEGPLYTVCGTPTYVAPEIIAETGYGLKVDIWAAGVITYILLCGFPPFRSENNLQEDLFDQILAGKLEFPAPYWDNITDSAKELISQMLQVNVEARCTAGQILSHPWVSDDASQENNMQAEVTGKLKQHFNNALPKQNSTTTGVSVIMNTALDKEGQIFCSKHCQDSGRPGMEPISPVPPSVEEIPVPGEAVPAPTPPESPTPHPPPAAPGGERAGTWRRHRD
T3 sequence (O94921 whole entry): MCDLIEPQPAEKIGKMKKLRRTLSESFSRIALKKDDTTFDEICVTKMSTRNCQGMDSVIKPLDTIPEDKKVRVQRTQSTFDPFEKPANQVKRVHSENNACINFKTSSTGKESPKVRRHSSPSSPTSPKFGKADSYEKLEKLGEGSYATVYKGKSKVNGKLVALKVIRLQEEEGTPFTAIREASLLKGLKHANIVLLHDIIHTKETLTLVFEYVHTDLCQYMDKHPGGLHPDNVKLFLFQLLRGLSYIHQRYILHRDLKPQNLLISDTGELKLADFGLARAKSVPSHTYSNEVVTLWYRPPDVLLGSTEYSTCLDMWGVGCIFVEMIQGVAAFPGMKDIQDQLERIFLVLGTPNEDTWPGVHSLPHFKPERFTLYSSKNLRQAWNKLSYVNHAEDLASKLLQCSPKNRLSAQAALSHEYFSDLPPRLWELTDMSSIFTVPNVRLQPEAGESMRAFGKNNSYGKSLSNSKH
Chain of ULK2 (Q8IYT8 whole entry): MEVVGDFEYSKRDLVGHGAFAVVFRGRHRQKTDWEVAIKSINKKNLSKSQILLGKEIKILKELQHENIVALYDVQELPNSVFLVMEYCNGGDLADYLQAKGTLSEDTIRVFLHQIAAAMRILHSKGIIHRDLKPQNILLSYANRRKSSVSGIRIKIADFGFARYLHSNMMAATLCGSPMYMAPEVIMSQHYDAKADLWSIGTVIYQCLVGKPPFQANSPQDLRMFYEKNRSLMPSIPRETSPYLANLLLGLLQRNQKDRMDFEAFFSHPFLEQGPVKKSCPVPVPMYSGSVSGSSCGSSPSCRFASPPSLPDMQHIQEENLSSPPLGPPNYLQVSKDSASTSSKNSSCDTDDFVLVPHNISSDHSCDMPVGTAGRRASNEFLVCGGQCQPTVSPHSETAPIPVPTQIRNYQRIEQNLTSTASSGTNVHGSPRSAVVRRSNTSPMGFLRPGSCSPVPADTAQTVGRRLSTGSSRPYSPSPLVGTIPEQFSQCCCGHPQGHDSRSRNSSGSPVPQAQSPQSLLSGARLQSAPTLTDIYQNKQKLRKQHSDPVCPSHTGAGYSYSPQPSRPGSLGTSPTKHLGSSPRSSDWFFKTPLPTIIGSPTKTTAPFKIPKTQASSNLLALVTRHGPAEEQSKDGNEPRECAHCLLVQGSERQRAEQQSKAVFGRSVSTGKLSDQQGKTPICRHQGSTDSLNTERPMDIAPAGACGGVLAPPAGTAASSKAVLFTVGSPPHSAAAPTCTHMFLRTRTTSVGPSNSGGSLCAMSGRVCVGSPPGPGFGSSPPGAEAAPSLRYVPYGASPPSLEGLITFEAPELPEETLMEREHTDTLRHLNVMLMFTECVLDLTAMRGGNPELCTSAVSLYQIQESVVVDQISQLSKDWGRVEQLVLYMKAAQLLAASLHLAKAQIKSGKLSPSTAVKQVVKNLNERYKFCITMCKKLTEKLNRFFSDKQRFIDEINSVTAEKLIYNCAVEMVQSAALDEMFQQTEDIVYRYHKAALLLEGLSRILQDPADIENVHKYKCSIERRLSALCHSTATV
Chain of NEK6 (Q9HC98 whole entry): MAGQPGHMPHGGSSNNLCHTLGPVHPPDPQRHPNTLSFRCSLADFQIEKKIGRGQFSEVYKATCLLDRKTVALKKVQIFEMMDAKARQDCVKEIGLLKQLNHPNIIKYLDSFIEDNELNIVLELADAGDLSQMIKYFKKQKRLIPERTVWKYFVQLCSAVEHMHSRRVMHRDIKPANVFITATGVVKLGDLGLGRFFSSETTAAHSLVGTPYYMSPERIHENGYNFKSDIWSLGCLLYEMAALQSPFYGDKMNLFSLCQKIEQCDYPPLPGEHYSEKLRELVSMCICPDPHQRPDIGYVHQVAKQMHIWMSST
Chain of NEK4 (P51957 whole entry): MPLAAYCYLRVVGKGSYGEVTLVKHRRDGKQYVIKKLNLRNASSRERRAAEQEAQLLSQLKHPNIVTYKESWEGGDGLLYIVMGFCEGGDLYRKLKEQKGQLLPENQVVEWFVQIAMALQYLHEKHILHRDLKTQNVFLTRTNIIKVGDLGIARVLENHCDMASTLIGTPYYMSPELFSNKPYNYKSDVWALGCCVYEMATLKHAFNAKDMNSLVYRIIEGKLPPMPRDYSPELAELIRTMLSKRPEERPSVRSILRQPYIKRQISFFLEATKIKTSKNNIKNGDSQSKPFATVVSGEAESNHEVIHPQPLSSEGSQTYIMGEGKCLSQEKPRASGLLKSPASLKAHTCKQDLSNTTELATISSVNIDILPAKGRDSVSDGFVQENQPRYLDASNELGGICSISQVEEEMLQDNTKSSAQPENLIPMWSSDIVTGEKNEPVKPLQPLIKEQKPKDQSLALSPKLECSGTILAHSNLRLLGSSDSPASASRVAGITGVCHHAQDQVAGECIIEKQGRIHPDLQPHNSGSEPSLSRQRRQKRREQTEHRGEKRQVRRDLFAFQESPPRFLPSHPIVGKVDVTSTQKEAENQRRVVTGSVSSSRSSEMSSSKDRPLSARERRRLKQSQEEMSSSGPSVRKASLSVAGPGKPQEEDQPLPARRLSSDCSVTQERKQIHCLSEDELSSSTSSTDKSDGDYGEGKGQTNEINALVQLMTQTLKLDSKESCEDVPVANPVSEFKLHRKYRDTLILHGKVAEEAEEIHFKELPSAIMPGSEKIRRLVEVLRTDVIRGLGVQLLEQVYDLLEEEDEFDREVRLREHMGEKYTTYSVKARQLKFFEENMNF
Chain of CSK (P41240 whole entry): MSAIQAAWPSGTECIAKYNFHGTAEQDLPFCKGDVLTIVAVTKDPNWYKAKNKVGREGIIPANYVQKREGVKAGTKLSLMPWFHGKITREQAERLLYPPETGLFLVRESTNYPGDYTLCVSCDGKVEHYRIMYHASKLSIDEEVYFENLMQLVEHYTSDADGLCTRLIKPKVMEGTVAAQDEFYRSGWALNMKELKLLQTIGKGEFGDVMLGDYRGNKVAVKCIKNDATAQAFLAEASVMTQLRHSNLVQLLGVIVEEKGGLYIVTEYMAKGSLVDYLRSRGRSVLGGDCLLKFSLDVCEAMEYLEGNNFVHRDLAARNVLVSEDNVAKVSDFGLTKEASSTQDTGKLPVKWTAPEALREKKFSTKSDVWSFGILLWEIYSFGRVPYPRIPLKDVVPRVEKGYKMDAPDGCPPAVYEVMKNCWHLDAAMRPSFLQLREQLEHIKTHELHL
Chain of CAMKK2 (Q96RR4 whole entry): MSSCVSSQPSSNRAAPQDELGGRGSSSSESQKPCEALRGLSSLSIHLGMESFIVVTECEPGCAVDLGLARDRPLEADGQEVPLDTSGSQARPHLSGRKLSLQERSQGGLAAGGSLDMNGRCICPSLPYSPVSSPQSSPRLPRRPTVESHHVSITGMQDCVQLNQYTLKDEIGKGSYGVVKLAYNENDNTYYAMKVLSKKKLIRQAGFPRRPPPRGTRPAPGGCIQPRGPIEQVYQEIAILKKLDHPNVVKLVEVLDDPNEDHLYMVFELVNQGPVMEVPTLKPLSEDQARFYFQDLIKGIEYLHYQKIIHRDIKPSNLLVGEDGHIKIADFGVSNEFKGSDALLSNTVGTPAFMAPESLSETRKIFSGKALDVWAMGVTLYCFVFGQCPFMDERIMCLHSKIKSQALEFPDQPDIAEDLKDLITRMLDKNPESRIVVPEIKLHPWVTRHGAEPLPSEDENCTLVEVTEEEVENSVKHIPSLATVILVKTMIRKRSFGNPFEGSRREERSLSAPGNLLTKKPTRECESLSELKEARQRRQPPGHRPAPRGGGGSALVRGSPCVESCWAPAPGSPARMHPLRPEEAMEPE

Take `C[C@@H]1CC(=O)NN=C1c1ccc(NN=C(C#N)C#N)cc1` [levosimendan]: the remaining binding at 100 µM is 54% at CAMKK2; 85% on CSF1R-autoinhibited; 76% on CSK; 100% at DCAMKL2; 91% at EGFR(S752-I759del); 77% at EPHB2. Further, the remaining binding at 100 µM on LIMK1 is 73%; at NEK4, 100%; at NEK6 it was 71%; at PCTK1, 88%; at PDPK1, 100%; at PFTK1, 67%. The remaining binding at 100 µM was 57% on PIKFYVE; 100% on PLK1; 27% on RIOK2 (read-out: Percent Control (100 uM Levosimendan)); 100% on SRMS; 56% on ULK2; 95% at WNK4. Further, on YANK3, the remaining binding at 100 µM is 73%. Further, the remaining binding at 10 µM at RIOK2 (read-out: Percent Control (10 uM Levosimendan)) was found to be 67%.
